Test results: paper PMC9822050, “Antiviral Activities of Ethyl Pheophorbides a and b Isolated from Aster pseudoglehnii against Influenza Viruses” (Molecules, 2022)
Converted amounts (≈) assume the structure as drawn.

Columns and labels:
IAV [1] = assay: Time-of-drug-addition assay, viral RNA transcript levels via qRT-PCR; type: cell-based, influenza A virus (PR8-GFP)
IAV [2] = assay: Western blot analysis of IAV HA protein level after time-of-drug-addition treatment; type: cell-based, influenza A virus (PR8-GFP)
IAV NA = IAV NA (Influenza A virus, UniProt P03468); type: biochemical
Chain of IAV NA (P03468 whole entry, looked up): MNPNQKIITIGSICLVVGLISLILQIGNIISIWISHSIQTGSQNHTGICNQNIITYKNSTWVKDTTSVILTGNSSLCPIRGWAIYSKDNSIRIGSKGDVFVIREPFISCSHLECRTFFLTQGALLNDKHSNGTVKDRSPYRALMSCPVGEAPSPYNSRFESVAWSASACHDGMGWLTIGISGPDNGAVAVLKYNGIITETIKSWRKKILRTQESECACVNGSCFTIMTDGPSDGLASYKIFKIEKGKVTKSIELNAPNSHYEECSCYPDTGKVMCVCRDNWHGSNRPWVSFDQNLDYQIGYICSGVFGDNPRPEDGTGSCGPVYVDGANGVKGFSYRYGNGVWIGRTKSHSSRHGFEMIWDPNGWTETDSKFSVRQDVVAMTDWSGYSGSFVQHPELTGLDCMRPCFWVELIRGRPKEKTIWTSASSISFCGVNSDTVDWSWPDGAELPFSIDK

HA1 = HA1 (Influenza A virus, UniProt P03452); assay: Hemagglutination inhibition assay with chicken red blood cells; conditions: IAV treated with 1 µg/mL, cRBC 0.5%
Chain of HA1 (P03452 18-343 limits assumed): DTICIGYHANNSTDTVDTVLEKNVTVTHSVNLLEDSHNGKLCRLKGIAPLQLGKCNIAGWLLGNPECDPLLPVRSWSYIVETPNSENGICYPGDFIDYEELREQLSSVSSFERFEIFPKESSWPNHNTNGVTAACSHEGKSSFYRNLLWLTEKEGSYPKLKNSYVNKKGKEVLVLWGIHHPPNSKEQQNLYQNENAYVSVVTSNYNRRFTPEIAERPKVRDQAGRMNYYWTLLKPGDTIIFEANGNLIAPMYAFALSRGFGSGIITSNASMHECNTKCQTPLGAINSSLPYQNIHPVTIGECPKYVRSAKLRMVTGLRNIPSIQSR
Chain of HA1 (P03452 344-565 partner limits assumed): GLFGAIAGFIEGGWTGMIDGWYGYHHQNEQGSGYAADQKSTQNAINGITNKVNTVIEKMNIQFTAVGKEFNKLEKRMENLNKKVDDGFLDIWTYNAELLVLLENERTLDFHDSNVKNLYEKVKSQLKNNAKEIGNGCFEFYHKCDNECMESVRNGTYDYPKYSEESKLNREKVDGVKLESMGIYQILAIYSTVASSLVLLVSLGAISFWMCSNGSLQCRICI

MDCK cells = assay: Cytotoxicity / MTT assay; type: cell-based, canine; conditions: 48 h, up to a concentration of 10 µg/mL
Description: To clarify whether the inhibitory activities of ethyl pheophorbides a and b are mediated through cytotoxicity, MDCK cells were treated with different concentrations of each compound and cell viability was determined after 48 h via the MTT assay (Figure S7).
After a 4 h period, tetrazolium crystals were dissolved with DMSO and absorbance was measured at 560 nm.

IBV = assay: Plaque reduction assay, IBV; conditions: Influenza B virus, MDCK, read-out: 50% inhibitory concentration (IC50) for IBV, virus pre-treated 1 h at room temperature, MDCK cells, MOI 0.001, plaque assay 48 h after infection
IAV [3] = assay: Plaque reduction assay, IAV; type: cell-based, influenza A virus (PR8-GFP); conditions: Influenza A virus, MDCK, virus pre-treated 1 h at room temperature, MDCK cells, MOI 0.01, plaque assay 48 h after infection; read-out: 50% inhibitory concentration (IC50) for IAV
Description: All experiments were performed in triplicate.

HA2 = HA2 (Influenza A virus, UniProt P03452); assay: Hemolysis inhibition assay with chicken red blood cells; conditions: IAV treated with 1 µg/mL, cRBC 2%, pH 5.2
Chain of HA2 (P03452 344-565 limits assumed): as the sequence (P03452 344-565 partner limits assumed) above
Chain of HA2 (P03452 18-343 partner limits assumed): as the sequence (P03452 18-343 limits assumed) above

adenovirus = assay: Adenovirus plaque assay; conditions: virus pre-treated 1 h at room temperature, 293A cells

In the case of NC12CC3CC(CC(C3)C1)C2 [Amantadine, reference compound], the “IAV replication (viral RNA transcript level)” value (IAV [1]; treatment during virus adsorption to host cells, 1 mM) is reported as “marked decrease” and the “IAV HA protein level” value (IAV [2]; treatment during adsorption, 1 mM, western blot) is reported as “marked downregulation”.
In the case of C=CC1=C(C)c2cc3[nH]c(c4c5nc(cc6[nH]c(cc1n2)c(C)c6CC)C(C)=C5C(=O)C4C(=O)OC)C(CCC(=O)OCC)C3C (centres unmarked) [ethyl pheophorbide a], the “effect on IAV NA activity” value (IAV NA) is reported as “no effects”, the “hemagglutination inhibition (HA1 function)” value (HA1) is reported as “no effect” and the “cell viability (MTT)” value (MDCK cells) is reported as “no adverse effects on cell viability”. The IC50 (IBV) was 1.62 ± 0.86 µg/mL (≈ 2.61 µM), the IC50 (IAV [3]) was 0.086 ± 0.072 µg/mL (≈ 0.139 µM) and the “hemolysis inhibition (HA2 function)” value (HA2) was “no effect”. For the same compound, the IAV transcript levels (IAV [1]) was “significantly reduced”, the “effect against non-enveloped adenovirus” value (adenovirus) was “no effect” and the “expression of IAV HA protein” value (IAV [2]) was “significantly suppressed”.
In the case of C=CC1=C(C)c2cc3[nH]c(c4c5nc(cc6[nH]c(cc1n2)c(C=O)c6CC)C(C)=C5C(=O)C4C(=O)OCC)C(CCC(=O)O)C3C (centres unmarked) [ethyl pheophorbide b], the “effect on IAV NA activity” value (IAV NA) is reported as “no effects”, the “hemagglutination inhibition (HA1 function)” value (HA1) is reported as “no effect” and the “cell viability (MTT)” value (MDCK cells) is reported as “no adverse effects on cell viability”. The IC50 (IBV) was 3.17 ± 0.94 µg/mL (≈ 5.11 µM), the IC50 (IAV [3]) was 0.094 ± 0.058 µg/mL (≈ 0.151 µM) and the “hemolysis inhibition (HA2 function)” value (HA2) was “no effect”. The IAV transcript levels (IAV [1]) was “significantly reduced”, the “effect against non-enveloped adenovirus” value (adenovirus) was “no effect” and the “expression of IAV HA protein” value (IAV [2]) was “significantly suppressed”.
